Assay results published in ChEMBL document CHEMBL6121011, “An oxidation-reduction-triggered thiamine disulfide-based prodrug of 10-hydroxycamptothecin for selective tumor cell locking and therapeutic delivery” (Eur J Med Chem, 2025).
The source made the active and inactive calls. No cut-off for these calls is given here.

How the values were obtained:
4T1 [1] = assay: Induction of intracellular ROS generation in mouse 4T1 cells at 0.5 uM incubated for 24 hrs by DCFH-DA probe based CLSM analysis; assay type: functional, cell-based
4T1 [2] = assay: Induction of mitochondrial damage in mouse 4T1 cells assessed as increase in green fluorescence at 0.5 uM incubated for 24 hrs by JC-1 staining based CLSM analysis; assay type: functional, cell-based
4T1 [3] = assay: Anti-metastatic activity in mouse 4T1 cells assessed as wound closure at 0.5 uM incubated for 24 hrs by scratch-wound assay (reference value: 42 %); assay type: functional
4T1 [4] = assay: Antiproliferative activity against mouse 4T1 cells incubated for 48 hrs by CCK8 assay; assay type: functional, cell-based; conditions: 4T1, 48 h
MCF7 = assay: Antiproliferative activity against human MCF7 cells incubated for 48 hrs by CCK8 assay; assay type: functional, cell-based; conditions: MCF7, 48 h
MDA-MB-231 = assay: Antiproliferative activity against human MDA-MB-231 cells incubated for 48 hrs by CCK8 assay; assay type: functional, cell-based; conditions: MDA-MB-231, 48 h
U-87 MG = assay: Antiproliferative activity against human U-87 MG cells incubated for 48 hrs by CCK8 assay; assay type: functional, cell-based, U-87MG ATCC
HepG2 = assay: Antiproliferative activity against human HepG2 cells incubated for 48 hrs by CCK8 assay; assay type: functional, cell-based; conditions: HepG2, 48 h
PC-3 = assay: Antiproliferative activity against human PC-3 cells incubated for 48 hrs by CCK8 assay; assay type: functional, cell-based; conditions: PC-3, 48 h
[5] = Antiproliferative activity against human MCF-10A cells incubated for 48 hrs by CCK8 assay; assay type: toxicity, cell-based
4T1 [6] = assay: Antitumor activity against mouse 4T1 cells implanted in BALB/c mouse assessed as tumor growth inhibition administered intravenously once every two days at equivalent dose of 10 mg/kg of HCPT for 14 days; assay type: functional, organism-based; conditions: route iv, time 14.0 day
[7] = Toxicity in BALB/c mouse implanted with mouse 4T1 cells assessed as animal death administered intravenously once every two days at equivalent dose of 10 mg/kg of HCPT for 14 days; assay type: organism-based; conditions: in vivo, iv, 336 h, time 14 day
[8] = Toxicity in BALB/c mouse implanted with mouse 4T1 cells assessed as body weight loss administered intravenously once every two days at equivalent dose of 10 mg/kg of HCPT for 14 days; assay type: organism-based; conditions: in vivo, iv, 336 h, time 14 day
[9] = Toxicity in BALB/c mouse implanted with mouse 4T1 cells assessed as damage in major organ tissues administered intravenously once every two days at equivalent dose of 10 mg/kg of HCPT for 14 days; assay type: organism-based; conditions: in vivo, iv, 336 h, time 14 day
[10] = Prodrug stability in 5 uM GSH assessed as compound remaining at 18 uM measured after 24 hrs by RP-HPLC analysis; assay type: ADME
[11] = Prodrug stability in 5 mM GSH assessed as compound remaining at 18 uM measured after 12 hrs by RP-HPLC analysis; assay type: ADME
[12] = Prodrug stability in 10 mM H2O2 assessed as compound remaining at 18 uM measured after 12 hrs by RP-HPLC analysis; assay type: ADME
[13] = Prodrug stability in 100 mM H2O2 assessed as compound remaining at 18 uM measured after 2 hrs by RP-HPLC analysis; assay type: ADME
4T1 [14] = assay: Antitumor activity against mouse 4T1 cells implanted in BALB/c mouse assessed as reduction in tumor size administered intravenously once every two days at equivalent dose of 10 mg/kg of HCPT for 14 days; assay type: functional, organism-based; conditions: route iv, time 14.0 day
4T1 [15] = assay: Antitumor activity against mouse 4T1 cells implanted in BALB/c mouse assessed as reduction in tumor weight administered intravenously once every two days at equivalent dose of 10 mg/kg of HCPT for 14 days; assay type: functional, organism-based; conditions: route iv, time 14.0 day
4T1 [16] = assay: Antitumor activity against mouse 4T1 cells implanted in BALB/c mouse assessed as increase in pyknotic cells with highly condensed nuclei administered intravenously once every two days at equivalent dose of 10 mg/kg of HCPT for 14 days by H and E staining based analysis; assay type: functional, organism-based; conditions: route iv, time 14.0 day
[17] = Cmax in Sprague-Dawley rat at 24 mg/kg, iv by HPLC-MS analysis; assay type: ADME, organism-based; conditions: in vivo
[18] = AUC in Sprague-Dawley rat at 24 mg/kg, iv by HPLC-MS analysis; assay type: ADME, organism-based; conditions: in vivo
[19] = Terminal elimination half life in Sprague-Dawley rat at 24 mg/kg, iv by HPLC-MS analysis; assay type: ADME, organism-based; conditions: in vivo, read-out: LambdaZ (converted)
[20] = Cmax in Sprague-Dawley rat assessed as fold change at 24 mg/kg, iv by HPLC-MS analysis relative to HCPT; assay type: ADME, organism-based; conditions: in vivo
[21] = AUC in Sprague-Dawley rat assessed as fold change at 24 mg/kg, iv by HPLC-MS analysis relative to HCPT; assay type: ADME, organism-based; conditions: in vivo
[22] = Drug internalization in mouse 4T1 cells assessed as green fluorescence in cytoplasm at 20 uM measured after 1 hr by CLSM analysis; assay type: ADME, cell-based; conditions: 4t1, 1 h
[23] = Drug internalization in mouse 4T1 cells assessed as green fluorescence in cytoplasm at 20 uM measured after 8 hrs by CLSM analysis; assay type: ADME, cell-based; conditions: 4t1, 8 h
[24] = Drug localization in cytoplasm of mouse 4T1 cells at 20 uM measured after 2 hrs by CLSM analysis; assay type: ADME, subcellular; conditions: 4t1, 2 h
[25] = Drug localization in mitochondria of mouse 4T1 cells at 20 uM measured after 2 hrs by CLSM analysis; assay type: ADME; conditions: 4t1, 2 h
[26] = Drug internalization in mouse 4T1 cells assessed as green fluorescence in cytoplasm at 20 uM measured after 2 hrs by CLSM analysis; assay type: ADME, cell-based; conditions: 4t1, 2 h
4T1 [27] = assay: Antitumor activity against mouse 4T1 cells implanted in BALB/c mouse assessed as tumor growth inhibition at 10 mg/kg, iv once every two days for 14 days; assay type: functional, organism-based; conditions: time 14.0 day
[28] = Toxicity in BALB/c mouse implanted with mouse 4T1 cells assessed as animal death at 10 mg/kg, iv once every two days measured for 9 to 10 days; assay type: organism-based; conditions: in vivo, time 9-10 day
[29] = Cmax in Sprague-Dawley rat at 10 mg/kg, iv by HPLC-MS analysis; assay type: ADME, organism-based; conditions: in vivo
[30] = AUC in Sprague-Dawley rat at 10 mg/kg, iv by HPLC-MS analysis; assay type: ADME, organism-based; conditions: in vivo
[31] = Prodrug stability in 5 uM to 5 mM GSH assessed as compound remaining at 20 uM measured for 24 hrs by RP-HPLC analysis; assay type: ADME
[32] = Cytotoxicity against human MCF-10A cells assessed as cell viability at 5 to 50 uM incubated for 24 hrs by CCK8 assay relative to control; assay type: toxicity, cell-based; conditions: dose 5-50 µM, read-out: Activity
4T1 [33] = assay: Cytotoxicity against mouse 4T1 cells assessed as cell viability at 5 to 50 uM incubated for 24 hrs by CCK8 assay relative to control; assay type: functional; conditions: dose 5-50 µM
[34] = Prodrug release in mouse 4T1 cells assessed as Nap release at 20 uM measured after 2 hrs by confocal microscopy; assay type: ADME, cell-based; conditions: 4t1, 2 h
[35] = Prodrug release in human MCF7 cells assessed as Nap release at 20 uM measured after 2 hrs by confocal microscopy; assay type: ADME, cell-based; conditions: mcf7, 2 h
[36] = Prodrug release in human MDA-MB-231 cells assessed as Nap release at 20 uM measured after 2 hrs by confocal microscopy; assay type: ADME, cell-based; conditions: mda-mb-231, 2 h
[37] = Prodrug release in human MCF-10A cells assessed as Nap release at 20 uM measured after 2 hrs by confocal microscopy; assay type: ADME, cell-based
[38] = Drug internalization in mouse 4T1 cells assessed as fold change in green fluorescence in cytoplasm at 20 uM measured after 8 hrs by flow cytometry relative to TD-Nap; assay type: ADME, cell-based; conditions: 4t1, 8 h
[39] = Drug internalization in mouse 4T1 cells assessed as fold change in green fluorescence in cytoplasm at 20 uM measured after 8 hrs by flow cytometry relative to K-Nap; assay type: ADME, cell-based; conditions: 4t1, 8 h
[40] = Drug localization in mitochondria of mouse 4T1 cells at 20 uM measured after 2 hrs by flow cytometry; assay type: ADME; conditions: 4t1, 2 h
4T1 [41] = assay: Induction of intracellular ROS generation in mouse 4T1 cells assessed as fold increase in DCF fluorescence at 0.5 uM incubated for 24 hrs by DCFH-DA probe based CLSM analysis relative to control; assay type: functional

Row | SMILES | Activity (4T1 [1]) | Activity (4T1 [2]) | Activity (4T1 [3]) | IC50 (4T1 [4]) | IC50 (MCF7) | IC50 (MDA-MB-231) | IC50 (U-87 MG) | IC50 (HepG2) | IC50 (PC-3) | IC50 at 48 h [5] | inhibition (4T1 [6]) | Activity [7] | Activity [8] | Activity [9] | Drug uptake [22] | Drug uptake [23] | Drug uptake [24] | Drug uptake [25] | further results
1 | CCOC(=O)CCCSC(C)(C)SCCCC(=O)Oc1ccc2nc3c(cc2c1)Cn1c-3cc2c(c1=O)COC(=O)[C@]2(O)CC | inactive | Active | ~34% | 3.78 µM | 4.21 µM | 7.02 µM | 6.24 µM | 1.47 µM | 1.93 µM | 20.7 µM | Active; Moderate Effect Observed | Non-toxic | Non-toxic | Non-toxic |  |  |  |  | 
2 | CC[C@@]1(O)C(=O)OCc2c1cc1n(c2=O)Cc2cc3cc(OC(=O)CCCSC(C)(C)SCCCC(=O)OCC/C(SSCC(C)C)=C(\C)N(C)C=O)ccc3nc2-1 |  | Active; Most Potential Among Tested Compounds | 11% | 0.96 µM | 1.02 µM | 5.43 µM | 4.05 µM | 1.01 µM | 1.39 µM | 33.3 µM | Active; Most Pronounced Effect Observed Among Tested Compounds | Non-toxic | Non-toxic | Non-toxic |  |  |  |  | Stability [10]: 84.8%; Stability [11]: <= 10%; Stability [12]: < 12%; Stability [13]: Unstable; Activity (4T1 [14]): Active; Exhibited Smallest Tumor Among Tested Compounds; Activity (4T1 [15]): Active; Lowest Tumor Weigth Observed Among Tested Compounds; Activity (4T1 [16]): Active; Cmax [17]: 7450 ng/mL; AUC [18]: 2720 ng·h/mL; half-life [19]: 3.24 h; fold change (FC) [20]: 4; fold change (FC) [21]: 2
3 | CCCN1C(=O)c2cccc3c(OC(=O)CCC(=O)OCC/C(SSCC(C)C)=C(\C)N(C)C=O)ccc(c23)C1=O |  |  |  |  |  |  |  |  |  |  |  |  |  |  | Active | Not_active | Active | Active | 
4 | C/C(=C(\CCOC(=O)CCCSC(C)(C)SCCCC(=O)O)SSCC(C)C)N(C)C=O |  |  |  | > 100 µM | > 100 µM | > 100 µM | > 100 µM | > 100 µM | > 100 µM | > 100 µM |  |  |  |  |  |  |  |  | 
5 | CCCN1C(=O)c2cccc3c(OC(=O)CCCSC(C)(C)SCCCC(=O)OCC)ccc(c23)C1=O |  |  |  |  |  |  |  |  |  |  |  |  |  |  | Active | Active | Active | Active | Drug uptake [26]: Active
6 | CC[C@@]1(O)C(=O)OCc2c1cc1n(c2=O)Cc2cc3cc(O)ccc3nc2-1 [HYDROXYCAMPTOTHECIN] | Active; Moderate Elevations Observed | Active; Moderate Activity Observed | ~34% | 1.71 µM | 1.09 µM | 3.12 µM | 2.43 µM | 0.95 µM | 1.46 µM | 3.17 µM |  |  |  |  |  |  |  |  | inhibition (4T1 [27]): Active; Moderate Effect Observed; Activity [28]: Toxic; Cmax [29]: 1950 ng/mL; AUC [30]: 1020 ng·h/mL
7 | CCCN1C(=O)c2cccc3c(OC(=O)CCCSC(C)(C)SCCCC(=O)OCC/C(SSCC(C)C)=C(\C)N(C)C=O)ccc(c23)C1=O |  |  |  |  |  |  |  |  |  |  |  |  |  |  | Active | Active | Active | Active | Stability [31]: Stable; viability at 24 h, 50 µM [32]: > 90%; Activity (4T1 [33]): >90%; Drug metabolism [34]: metabolite_detected; Drug metabolism [35]: metabolite_detected; Drug metabolism [36]: metabolite_detected; Drug metabolism [37]: metabolite_notdetected; Drug uptake [26]: Active; fold change (FC) [38]: ~ 2; fold change (FC) [39]: ~ 2; Drug uptake [40]: Active; fold change (FC) (4T1 [41]): ~6.5
8 | CC[C@@]1(O)C(=O)OCc2c1cc1n(c2=O)Cc2cc3cc(OC(=O)CCC(=O)OCC/C(SSCC(C)C)=C(\C)N(C)C=O)ccc3nc2-1 | inactive | Active | ~25% | 5.34 µM | 7.32 µM | 10.4 µM | 5.48 µM | 5.32 µM | 3.45 µM | 10.5 µM | Active; Moderate Effect Observed | Non-toxic | Non-toxic | Non-toxic |  |  |  |  | 
